Source: patent publication US20070128217A1 (priority 2003, published 2007)

Tests used:
[1] = test system: control sera (pooled serum of ten healthy LUMC hospital workers; commercial negative donor pooled serum from the Dutch bloodbank); format: binding, human; set-up: Binding of Control serum LUMC to linear peptides / Binding of Control serum Blood-bank to linear peptides / Binding of Control serum LUMC to looped peptides / Binding of Control Serum Blood-Bank to Looped peptides / Binding of Control serum LUMC to linear peptides of the protein M of SARS-CoV Urbani / Binding of Control serum Blood-bank to linear peptides of the protein M of SARS-CoV Urbani / Binding of Control serum LUMC to looped peptides of the protein M of SARS-CoV Urbani / Binding of Control Serum Blood-Bank to Looped peptides of the protein M of SARS-CoV Urbani: unit not given here
[2] = test system: rabbit serum obtained by immunizing a rabbit with the SARS-CoV strain Frankfurt 1; format: binding; set-up: Binding of a rabbit serum to linear peptides / Binding of a rabbit serum to looped peptides / Rabbit serum linear peptides / Rabbit serum looped peptides / Binding of a rabbit serum to linear peptides of protein N of SARS-CoV Urbani (Rabbit serum linear peptides) / Binding of a rabbit serum to looped/cyclic peptides of protein N of SARS-CoV Urbani (Rabbit serum looped peptides): unit not given here
[3] = test system: antibodies in sera from SARS patients (sera 1a, 1b, 2, 6, 37, 62, London, SARS-yellow, SARS-green); format: binding, human; set-up: Binding of serum 6 to linear peptides of protein X1 of SARS-CoV Urbani / Binding of serum 37 to linear peptides of protein X1 of SARS-CoV Urbani / Binding of serum 6 to looped/cyclic peptide (PEPSCAN-ELISA) / Binding of serum 37 to looped/cyclic peptide (PEPSCAN-ELISA) / Binding of serum 37 to looped/cyclic peptides of protein X1 of SARS-CoV Urbani / Binding of serum 6 to linear peptides of protein X2 / Binding of serum 37 to linear peptides of protein X2 / Binding of serum 37 to looped/cyclic peptides of protein X2 of SARS-CoV Urbani / Binding of serum 6 to linear peptides of protein M of SARS-CoV Urbani / Binding of serum 37 to linear peptides of protein M of SARS-CoV Urbani / Binding of serum 6 to looped/cyclic peptides of protein M of SARS-CoV Urbani / Binding of serum 37 to looped/cyclic peptides of protein M of SARS-CoV Urbani / Binding of serum 6 to linear peptides of protein X3 of SARS-CoV Urbani / Binding of serum 37 to linear peptides of protein X3 of SARS-CoV Urbani / Binding of serum 37 to looped/cyclic peptides of protein X3 of SARS-CoV Urbani / Binding of serum 6 to linear peptides of protein X4 of SARS-CoV Urbani / Binding of serum 37 to linear peptides of protein X4 of SARS-CoV Urbani / Binding of serum 37 to looped/cyclic peptides of protein X4 of SARS-CoV Urbani / Binding of serum 6 to linear peptides of protein X5 of SARS-CoV Urbani / Binding of serum 37 to linear peptides of protein X5 of SARS-CoV Urbani / Binding of serum 37 to looped/cyclic peptides of protein X5 of SARS-CoV Urbani / Binding of serum 6 to linear peptides of protein N of SARS-CoV Urbani / Binding of serum 37 to linear peptides of protein N of SARS-CoV Urbani / Binding of serum 6 to linear peptide (PEPSCAN-ELISA) / Binding of serum 1a to looped/cyclic peptides of protein N of SARS-CoV Urbani / Binding of serum 1b to looped/cyclic peptides of protein N of SARS-CoV Urbani / Binding of serum 2 to looped/cyclic peptides of protein N of SARS-CoV Urbani / Binding of serum 6 to looped/cyclic peptides of protein N of SARS-CoV Urbani / Binding of serum 37 to looped/cyclic peptides of protein N of SARS-CoV Urbani / Binding of serum 62 to looped/cyclic peptides of protein N of SARS-CoV Urbani / Binding of serum London to looped/cyclic peptides of protein N of SARS-CoV Urbani / Binding of serum SARS-green to looped/cyclic peptides of protein N of SARS-CoV Urbani: unit not given here

Row | Sequence | Binding of Control Serum Blood-Bank to Looped peptides [1] | Binding of Control serum Blood-bank to linear peptides [1] | Binding of Control serum LUMC to linear peptides [1] | Binding of Control serum LUMC to looped peptides [1] | Binding of a rabbit serum to linear peptides [2] | Binding of a rabbit serum to looped peptides [2] | Binding of serum 1a to looped/cyclic peptides of protein X2 of SARS-CoV Urbani [3] | Binding of serum 1b to looped/cyclic peptides of protein X2 of SARS-CoV Urbani [3] | Binding of serum 2 to looped/cyclic peptides of protein X2 of SARS-CoV Urbani [3] | Binding of serum 6 to looped/cyclic peptides of protein X2 of SARS-CoV Urbani [3] | Binding of serum 37 to looped/cyclic peptides of protein X2 of SARS-CoV Urbani [3] | Binding of serum 62 to looped/cyclic peptides of protein X2 of SARS-CoV Urbani [3] | Binding of serum London to looped/cyclic peptides of protein X2 of SARS-CoV Urbani [3] | Binding of serum SARS-green to looped/cyclic peptides of protein X2 of SARS-CoV Urbani [3] | Binding of serum SARS-yellow to looped/cyclic peptides of protein X2 of SARS-CoV Urbani [3] | Binding of serum 1a to linear peptides of protein X1 of SARS-CoV Urbani [3] | Binding of serum 1a to looped/cyclic peptide (PEPSCAN-ELISA) [3] | Binding of serum 1b to linear peptides of protein X1 of SARS-CoV Urbani [3] | Binding of serum 1b to looped/cyclic peptide (PEPSCAN-ELISA) [3] | Binding of serum 2 to linear peptides of protein X1 of SARS-CoV Urbani [3] | further results
1 | MAISPKFTTSLSLHK | 0.7 | 1.0 | 0.7 | 0.6 | 0.3 | 0.6 | 0.5 | 0.5 | 0.4 | 0.4 | 0.4 | 0.6 | 0.2 | 0.4 | 0.5 | – | – | – | – | – | Binding of serum 1a to linear peptides of protein X2 [3]: 0.7; Binding of serum 1b to linear peptides of protein X2 [3]: 0.7; Binding of serum 2 to linear peptides of protein X2 [3]: 0.7; Binding of serum 6 to linear peptides of protein X2 [3]: 0.6; Binding of serum 37 to linear peptides of protein X2 [3]: 0.7; Binding of serum 62 to linear peptides of protein X2 [3]: 0.7; Binding of serum London to linear peptides of protein X2 [3]: 0.5; Binding of serum SARS-green to linear peptides of protein X2 [3]: 0.5; Binding of serum SARS-yellow to linear peptides of protein X2 [3]: 0.5
2 | MEAQFLYLYALIYFL | 0.4 | 0.2 | 0.5 | 0.5 | 0.1 | 0.5 | – | – | – | – | – | – | – | – | – | 0.7 | 0.5 | 0.6 | 0.3 | 0.5 | Binding of serum 2 to looped/cyclic peptide (PEPSCAN-ELISA) [3]: 0.4; Binding of serum 6 to linear peptides of protein X1 of SARS-CoV Urbani [3]: 0.4; Binding of serum 6 to looped/cyclic peptide (PEPSCAN-ELISA) [3]: 0.2; Binding of serum 37 to linear peptides of protein X1 of SARS-CoV Urbani [3]: 0.5; Binding of serum 37 to looped/cyclic peptide (PEPSCAN-ELISA) [3]: 0.8; Binding of serum 62 to linear peptides of protein X1 of SARS-CoV Urbani [3]: 0.4; Binding of serum 62 to looped/cyclic peptide (PEPSCAN-ELISA) [3]: 0.5; Binding of serum London to linear peptides of protein X1 of SARS-CoV Urbani [3]: 0.2; Binding of serum London to looped/cyclic peptide (PEPSCAN-ELISA) [3]: 0.2; Binding of serum SARS-green to linear peptides of protein X1 of SARS-CoV Urbani [3]: 0.0; Binding of serum SARS-green to looped/cyclic peptide (PEPSCAN-ELISA) [3]: 0.2; Binding of serum SARS-yellow to linear peptides of protein X1 of SARS-CoV Urbani [3]: 0.2; Binding of serum SARS-yellow to looped/cyclic peptide (PEPSCAN-ELISA) [3]: 0.4
3 | MRFFTLGSITAQPVK | 0.2 | 0.4 | 0.7 | 0.4 | 0.4 | 0.2 | – | – | – | – | – | – | – | – | – | 0.6 | 0.3 | 0.4 | 0.1 | 0.4 | Binding of serum 2 to looped/cyclic peptide (PEPSCAN-ELISA) [3]: 0.1; Binding of serum 6 to linear peptides of protein X1 of SARS-CoV Urbani [3]: 0.6; Binding of serum 6 to looped/cyclic peptide (PEPSCAN-ELISA) [3]: 0.2; Binding of serum 37 to linear peptides of protein X1 of SARS-CoV Urbani [3]: 0.6; Binding of serum 37 to looped/cyclic peptide (PEPSCAN-ELISA) [3]: 0.2; Binding of serum 62 to linear peptides of protein X1 of SARS-CoV Urbani [3]: 0.4; Binding of serum 62 to looped/cyclic peptide (PEPSCAN-ELISA) [3]: 0.3; Binding of serum London to linear peptides of protein X1 of SARS-CoV Urbani [3]: 0.5; Binding of serum London to looped/cyclic peptide (PEPSCAN-ELISA) [3]: 0.2; Binding of serum SARS-green to linear peptides of protein X1 of SARS-CoV Urbani [3]: 0.2; Binding of serum SARS-green to looped/cyclic peptide (PEPSCAN-ELISA) [3]: 0.1; Binding of serum SARS-yellow to linear peptides of protein X1 of SARS-CoV Urbani [3]: 0.4; Binding of serum SARS-yellow to looped/cyclic peptide (PEPSCAN-ELISA) [3]: 0.1
4 | MSRRRLLACLCKHKK | 0.3 | 0.7 | 0.5 | 0.2 | 0.2 | 0.3 | 0.2 | 0.1 | 0.0 | 0.1 | 0.2 | 0.3 | 0.1 | 0.1 | 0.1 | – | – | – | – | – | Recognition of the peptide by sera of SARS-CoV infected individuals, and form (linear, looped/cyclic) in which it is recognized [3]: recognized in linear form
5 | MWLSYFVASFRLFAR | – | – | – | – | – | – | – | – | – | – | – | – | – | – | – | – | – | – | – | – | Binding of Control Serum Blood-Bank to Looped peptides of the protein M of SARS-CoV Urbani [1]: 0.7; Binding of Control serum Blood-bank to linear peptides of the protein M of SARS-CoV Urbani [1]: 0.5; Binding of Control serum LUMC to linear peptides of the protein M of SARS-CoV Urbani [1]: 0.2; Binding of Control serum LUMC to looped peptides of the protein M of SARS-CoV Urbani [1]: 0.7; Rabbit serum linear peptides [2]: 0.4; Rabbit serum looped peptides [2]: 0.5; Binding of serum 1a to linear peptides of protein M of SARS-CoV Urbani [3]: 0.6; Binding of serum 1b to linear peptides of protein M of SARS-CoV Urbani [3]: 0.3; Binding of serum 2 to linear peptides of protein M of SARS-CoV Urbani [3]: 0.5; Binding of serum 6 to linear peptides of protein M of SARS-CoV Urbani [3]: 0.3; Binding of serum 37 to linear peptides of protein M of SARS-CoV Urbani [3]: 0.6; Binding of serum 62 to linear peptides of protein M of SARS-CoV Urbani [3]: 0.7; Binding of serum London to linear peptides of protein M of SARS-CoV Urbani [3]: 0.3; Binding of serum SARS-green to linear peptides of protein M of SARS-CoV Urbani [3]: 0.2; Binding of serum SARS-yellow to linear peptides of protein M of SARS-CoV Urbani [3]: 0.1; Recognition of the peptide by sera of SARS-CoV infected individuals, and form (linear, looped/cyclic) in which it is recognized [3]: recognized in looped/cyclic form
